Experimental data: patent US10639373B2, “Pyrrolobenzodiazepine antibody drug conjugates and methods of use” (priority 2015, dated 2020)

Columns and labels:
[1] = test system: duplex oligonucleotides Pu-GAAATC-Py and Pu-GAAATG-Py; experiment: Oligonucleotide binding/alkylation assay
[2] = Exploratory single dose free drug toxicology study in rats; assay type: in vivo, rat; details: for reticulocytes: all doses, 72 hours post-dose; for reticulocyte recovery: by 168 hours post-dose; for MTD at 7 day: rat, in vivo
Protocol: An exploratory single dose toxicology study was conducted in rats comparing the C-1 (PBD bis alkylator) and DM-2 (PBD monoalkylator) free drugs. Animals received a single IV dose of C-1, DM-2, or vehicle and were monitored for a 7-day recovery period.
Toxicity was assessed by clinical observations and clinical pathology (hematology and clinical chemistry at 72 and 168 hours post-dose). In general, results were similar for DM-2 at ten times the dose level of C-1.

[3] = 100 μM compound, 50 μM DNA, 1 hour, 37° C.

For `C=C1C[C@H]2CNc3cc(OCCCCCOc4cc5c(cc4OC)C(=O)N4CC(=C)C[C@H]4CN5)c(OC)cc3C(=O)N2C1` [C-3, (11aS,11a′S)-8,8′-(pentane-1,5-diylbis(oxy))bis(7-methoxy-2-methylene-1,2,3,10,11,11a-hexahydro-5H-benzo[e]pyrrolo[1,2-a][1,4]diazepin-5-one)], the DNA binding ([1]; imine bonds of C-1 reduced) was “completely eliminates DNA binding”.

With `C=C1C[C@H]2C=Nc3cc(OC)c(OC)cc3C(=O)N2C1` [C-2, (S)-7,8-dimethoxy-2-methylene-1,2,3,11a-tetrahydro-5H-benzo[e]pyrrolo[1,2-a][1,4]diazepin-5-one] the “less efficiency in covalently alkylating the duplex oligonucleotides than dimer C-1” value [1, 3] was > 50 times.

In the case of `C=C1C[C@H]2C=Nc3cc(OCCCCCOc4cc5c(cc4OC)C(=O)N4CC(=C)C[C@H]4C(=O)N5)c(OC)cc3C(=O)N2C1` [DM-2, (S)-7-methoxy-8-((5-(((S)-7-methoxy-2-methylene-5-oxo-2,3,5,11a-tetrahydro-1H-benzo[e]pyrrolo[1,2-a] [1,4]diazepin-8-yl)oxy)pentyl)oxy)-2-methylene-2,3-dihydro-1H-benzo[e]pyrrolo[1,2-a] [1,4]diazepine-5,11(10H,11aH)-dione], the clinical pathology ([2]; 2 mg/kg) is reported as “clinical pathology changes indicative of liver and kidney toxicity”, the outcome ([2]; 2 mg/kg) is reported as “euthanized in moribund condition on Day 4” and the body weight loss ([2]; 2 mg/kg, Day 2 to 4) is reported as “approximately 14%”. The tolerability ([2]; 0.5 and 1 mg/kg, single IV dose) was “well tolerated”, the reticulocytes [2] was “dose-dependent decrease in reticulocytes” and the reticulocyte recovery [2] was “recovered in the 0.5 and 1 mg/kg groups”. The MTD at 7 day ([2]; single IV dose) was 1 mg/kg and the main target organs ([2]; single IV dose) was “bone marrow, kidney, and liver”.

In the case of `C=C1C[C@H]2C=Nc3cc(OCCCCCOc4cc5c(cc4OC)C(=O)N4CC(=C)C[C@H]4C=N5)c(OC)cc3C(=O)N2C1` [C-1, (11aS,11a′S)-8,8′-(pentane-1,5-diylbis(oxy))bis(7-methoxy-2-methylene-1,2,3,11a-tetrahydro-5H-benzo[e]pyrrolo[1,2-a][1,4]diazepin-5-one), reference compound], the clinical pathology ([2]; 0.2 mg/kg) is reported as “clinical pathology changes indicative of liver and kidney toxicity”, the tolerability ([2]; 0.05 and 0.1 mg/kg, single IV dose) is reported as “well tolerated with no clinical signs” and the reticulocytes [2] is reported as “dose-dependent decrease in reticulocytes”. The reticulocyte recovery [2] was “recovering in the 0.05 and 0.1 mg/kg groups”, the MTD at 7 day ([2]; single IV dose) was 0.1 mg/kg and the main target organs ([2]; single IV dose) was “bone marrow, kidney, and liver”. For the same compound, the “toxic potency relative to DM-2” value ([2]; single IV dose) was “approximately ten times as potent as DM-2” and the “more efficiency to covalently alkylate the duplex oligonucleotides than monoamine DM-1” value [1, 3] was 2-3 times.
